Laboratory results from patent publication US20020035061A1, “COMPOSITIONS AND METHODS FOR TREATING INFECTIONS USING CATIONIC PEPTIDES ALONE OR IN COMBINATION WITH ANTIBIOTICS” (priority 1996, published 2002).
Values after ≈ are worked out from the molar mass of the structure shown. Values joined by “and” are separate entries in the source; they are usually repeats but may differ in a detail not shown here. Equal entries are not always repeated. Where two headings read alike, the source gives them in different places.

How the values were obtained:
Experiment in all cases: microbe, parasite or virus in culture
Assay type in all cases: cell-based
[1] = test system: inherently resistant microorganisms
[2] = test system: vancomycin / teicoplanin resistant enterococci; conditions: for Peptide MIC Alone: Amikacin section; for FIC: peptide + Amikacin
[3] = test system: bacterial isolates
[4] = test system: microorganisms with acquired resistance; conditions: for Peptide MIC Alone: Gentamicin section; for FIC: peptide + Gentamicin
[5] = Enterococcus faecalis, read-out: Amikacin MIC Alone, E. faecalis EFS008
[6] = Enterococcus faecium, read-out: Amikacin MIC Alone, E. faecium EFM004
[7] = Pseudomonas aeruginosa, read-out: Amikacin MIC Alone, P. aeruginosa PA022

KWKLFIKKLTPAVKKVLLTGLPALIS [MBI 29F1]
Peptide MIC + Amikacin ([1]; A. baumannii): 2 µg/mL
Peptide MIC Alone ([1]; A. baumannii, Amikacin section): 8 µg/mL
Peptide MIC + Amikacin ([1]; S. maltophilia): 2 µg/mL
FIC ([1]; peptide + Amikacin, A. baumannii): 0.75
Amikacin MIC + Peptide ([2]; E. faecalis EFS008): 4 µg/mL
Peptide MIC + Amikacin ([2]; E. faecalis EFS008): 0.5 µg/mL
Peptide MIC Alone ([2]; E. faecalis EFS008): 4 µg/mL
Amikacin MIC + Peptide ([2]; E. faecium EFM004): 8 µg/mL
Peptide MIC + Amikacin ([2]; E. faecium EFM004): 16 µg/mL
Peptide MIC Alone ([2]; E. faecium EFM004): 32 µg/mL
FIC ([2]; E. faecalis EFS008): 0.19
FIC ([2]; E. faecium EFM004): 0.53
Peptide MIC Alone ([3]; 1. Amikacin, A. baumannii ABI001): 8 µg/mL
Peptide MIC Alone ([3]; 1. Amikacin, A. baumannii ABI003): 4 µg/mL
Peptide MIC Alone ([3]; 1. Amikacin, E. coli ECO022): 4 µg/mL
Peptide MIC Alone ([3]; 1. Amikacin, E. faecalis EFS008): 4 µg/mL
Peptide MIC Alone ([3]; 1. Amikacin, E. faecium EFM004): 32 µg/mL
Peptide MIC Alone ([3]; 1. Amikacin, P. aeruginosa PA022): 4 µg/mL
Peptide MIC Alone ([3]; 1. Amikacin, S. aureus SA014 MRSA): 4 µg/mL
Peptide MIC Alone ([3]; 1. Amikacin, S. epidermidis SE002): 32 µg/mL
Peptide MIC Alone ([3]; 1. Amikacin, S. epidermidis SE003): 32 µg/mL
Peptide MIC Alone ([3]; 1. Amikacin, S. maltophilia SMA021): 8 µg/mL
Peptide MIC Alone ([3]; 1. Amikacin, S. maltophilia SMA022): 16 µg/mL
Peptide MIC Alone ([3]; 4. Gentamicin, P. aeruginosa PA023): 128 µg/mL
Peptide MIC Alone ([3]; 4. Gentamicin, S. maltophilia SMA016): 32 µg/mL
Peptide MIC Alone ([3]; 4. Gentamicin, S. maltophilia SMA017): 4 µg/mL
Amikacin MIC + Peptide ([3]; A. baumannii ABI001): 0.25 µg/mL
Peptide MIC + Amikacin ([3]; A. baumannii ABI001): 4 µg/mL
Amikacin MIC + Peptide ([3]; A. baumannii ABI003): 2 µg/mL
Peptide MIC + Amikacin ([3]; A. baumannii ABI003): 2 µg/mL
Peptide MIC + Amikacin ([3]; E. coli ECO022): 2 µg/mL
Amikacin MIC + Peptide ([3]; E. faecalis EFS008): 16 µg/mL
Peptide MIC + Amikacin ([3]; E. faecalis EFS008): 0.125 µg/mL
Amikacin MIC + Peptide ([3]; E. faecium EFM004): 32 µg/mL
Peptide MIC + Amikacin ([3]; E. faecium EFM004): 8 µg/mL
Amikacin MIC + Peptide ([3]; P. aeruginosa PA022): 64 µg/mL
Peptide MIC + Amikacin ([3]; P. aeruginosa PA022): 0.125 µg/mL
Gentamicin MIC + Peptide ([3]; P. aeruginosa PA023): 0.125 µg/mL
Peptide MIC + Gentamicin ([3]; P. aeruginosa PA023): 64 µg/mL
Amikacin MIC + Peptide ([3]; S. aureus SA014 MRSA): 16 µg/mL
Peptide MIC + Amikacin ([3]; S. aureus SA014 MRSA): 0.125 µg/mL
Amikacin MIC + Peptide ([3]; S. epidermidis SE002): 16 µg/mL
Peptide MIC + Amikacin ([3]; S. epidermidis SE002): 4 µg/mL
Amikacin MIC + Peptide ([3]; S. epidermidis SE003): 16 µg/mL
Peptide MIC + Amikacin ([3]; S. epidermidis SE003): 8 µg/mL
Gentamicin MIC + Peptide ([3]; S. maltophilia SMA016): 16 µg/mL
Peptide MIC + Gentamicin ([3]; S. maltophilia SMA016): 16 µg/mL
Gentamicin MIC + Peptide ([3]; S. maltophilia SMA017): 32 µg/mL
Peptide MIC + Gentamicin ([3]; S. maltophilia SMA017): 0.125 µg/mL
Amikacin MIC + Peptide ([3]; S. maltophilia SMA021): 8 µg/mL
Peptide MIC + Amikacin ([3]; S. maltophilia SMA021): 2 µg/mL
Amikacin MIC + Peptide ([3]; S. maltophilia SMA022): 16 µg/mL
Peptide MIC + Amikacin ([3]; S. maltophilia SMA022): 4 µg/mL
FIC ([3]; peptide + Amikacin, A. baumannii ABI001): 0.51
FIC ([3]; peptide + Amikacin, A. baumannii ABI003): 0.63
FIC ([3]; peptide + Amikacin, E. coli ECO022): 0.51
FIC ([3]; peptide + Amikacin, E. faecalis EFS008): 0.28
FIC ([3]; peptide + Amikacin, E. faecium EFM004): 0.38
FIC ([3]; peptide + Amikacin, P. aeruginosa PA022): 0.53
FIC ([3]; peptide + Amikacin, S. aureus SA014 MRSA): 0.53
FIC ([3]; peptide + Amikacin, S. epidermidis SE002): 0.38
FIC ([3]; peptide + Amikacin, S. epidermidis SE003): 0.50
FIC ([3]; peptide + Amikacin, S. maltophilia SMA021): 0.31
FIC ([3]; peptide + Amikacin, S. maltophilia SMA022): 0.31
FIC ([3]; peptide + Gentamicin, P. aeruginosa PA023): 0.52
FIC ([3]; peptide + Gentamicin, S. maltophilia SMA016): 0.56
FIC ([3]; peptide + Gentamicin, S. maltophilia SMA017): 0.53
Gentamicin MIC + Peptide ([4]; A. calcoaceticus AC001): 2 µg/mL
Peptide MIC + Gentamicin ([4]; A. calcoaceticus AC001): 4 µg/mL
Peptide MIC Alone ([4]; A. calcoaceticus AC001): 8 µg/mL
Gentamicin MIC + Peptide ([4]; P. aeruginosa PA023): 0.125 µg/mL
Peptide MIC + Gentamicin ([4]; P. aeruginosa PA023): 64 µg/mL
Peptide MIC Alone ([4]; P. aeruginosa PA023): 128 µg/mL
FIC ([4]; A. calcoaceticus AC001): 0.75
FIC ([4]; P. aeruginosa PA023): 0.52

NCC[C@H](O)C(=O)N[C@@H]1C[C@H](N)[C@@H](O[C@H]2O[C@H](CN)[C@@H](O)[C@H](O)[C@H]2O)[C@H](O)[C@H]1O[C@H]1O[C@H](CO)[C@@H](O)[C@H](N)[C@H]1O [Amikacin]
MIC ([1]; Acinetobacter baumannii, read-out: Amikacin MIC + Peptide, A. baumannii, peptide Deber A2KA2): 16 µg/mL
MIC ([1]; Acinetobacter baumannii, read-out: Amikacin MIC + Peptide, A. baumannii, peptide MBI 11B16CN): 4 µg/mL
MIC ([1]; Acinetobacter baumannii, read-out: Amikacin MIC + Peptide, A. baumannii, peptide MBI 27): 16 µg/mL
MIC ([1]; Acinetobacter baumannii, read-out: Amikacin MIC + Peptide, A. baumannii, peptide MBI 29F1): 16 µg/mL
MIC ([1]; Acinetobacter baumannii, read-out: Amikacin MIC Alone, A. baumannii): 32 µg/mL (≈ 54.6 µM)
Amikacin MIC + Peptide ([1]; B. cepacia, peptide MBI 29A3): 32 µg/mL
MIC ([1]; Burkholderia cepacia, read-out: Amikacin MIC + Peptide, B. cepacia, peptide MBI 27): 16 µg/mL
MIC ([1]; Burkholderia cepacia, read-out: Amikacin MIC + Peptide, B. cepacia, peptide MBI 29A3): 16 µg/mL
Amikacin MIC + Peptide ([1]; S. aureus MRSA, peptide MBI 11B16CN): 4 µg/mL
Amikacin MIC + Peptide ([1]; S. maltophilia, peptide MBI 11B16CN): 4 µg/mL
Amikacin MIC + Peptide ([1]; S. maltophilia, peptide MBI 21A2): 16 µg/mL
Amikacin MIC + Peptide ([1]; S. maltophilia, peptide MBI 26): 16 µg/mL
Amikacin MIC + Peptide ([1]; S. maltophilia, peptide MBI 29A3): 16 µg/mL
MIC ([1]; Staphylococcus aureus, MRSA, read-out: Amikacin MIC + Peptide, S. aureus MRSA, peptide Deber A2KA2): 0.125 µg/mL
MIC ([1]; Staphylococcus aureus, MRSA, read-out: Amikacin MIC + Peptide, S. aureus MRSA, peptide MBI 11B16CN): 8 µg/mL
MIC ([1]; Staphylococcus aureus, MRSA, read-out: Amikacin MIC + Peptide, S. aureus MRSA, peptide MBI 21A2): 2 µg/mL
MIC ([1]; Staphylococcus aureus, MRSA, read-out: Amikacin MIC + Peptide, S. aureus MRSA, peptide MBI 27): 16 µg/mL
MIC ([1]; Staphylococcus aureus, MRSA, read-out: Amikacin MIC + Peptide, S. aureus MRSA, peptide MBI 29F1): 16 µg/mL
MIC ([1]; Staphylococcus aureus, MRSA, read-out: Amikacin MIC Alone, S. aureus MRSA): 32 µg/mL (≈ 54.6 µM)
MIC ([1]; Stenotrophomonas maltophilia, read-out: Amikacin MIC + Peptide, S. maltophilia, peptide MBI 11B16CN): 8 µg/mL
MIC ([1]; Stenotrophomonas maltophilia, read-out: Amikacin MIC + Peptide, S. maltophilia, peptide MBI 21A2): 8 µg/mL
MIC ([1]; Stenotrophomonas maltophilia, read-out: Amikacin MIC + Peptide, S. maltophilia, peptide MBI 26): 8 µg/mL
MIC ([1]; Stenotrophomonas maltophilia, read-out: Amikacin MIC + Peptide, S. maltophilia, peptide MBI 29A3): 8 µg/mL
MIC ([1]; Stenotrophomonas maltophilia, read-out: Amikacin MIC + Peptide, S. maltophilia, peptide MBI 29F1): 8 µg/mL
MIC ([1]; Stenotrophomonas maltophilia, read-out: Amikacin MIC Alone, S. maltophilia): 128 µg/mL (≈ 219 µM)
Amikacin MIC Alone ([2]; E. faecium EFM004): 64 µg/mL and >128 µg/mL
MIC [2, 5]: 64 µg/mL (≈ 109 µM)
MIC [2, 6]: 128 µg/mL (≈ 219 µM)
MIC ([2]; Enterococcus faecium, read-out: Amikacin MIC Alone, E. faecium EFM020): 32 µg/mL (≈ 54.6 µM)
Amikacin MIC Alone ([3]; A. baumannii ABI001): 32 µg/mL
MIC ([3]; Acinetobacter baumannii, read-out: Amikacin MIC Alone, A. baumannii ABI001): 64 µg/mL (≈ 109 µM)
MIC ([3]; Acinetobacter baumannii, read-out: Amikacin MIC Alone, A. baumannii ABI003): 16 µg/mL (≈ 27.3 µM)
Amikacin MIC Alone ([3]; B. cepacia BC005): 128 µg/mL
MIC ([3]; Burkholderia cepacia, read-out: Amikacin MIC Alone, B. cepacia BC003): 32 µg/mL (≈ 54.6 µM)
MIC ([3]; Burkholderia cepacia, read-out: Amikacin MIC Alone, B. cepacia BC005): 64 µg/mL (≈ 109 µM)
Amikacin MIC Alone ([3]; E. faecalis EFS008): 64 µg/mL
Amikacin MIC Alone ([3]; E. faecium EFM004): >128 µg/mL
MIC [3, 5]: 32 µg/mL (≈ 54.6 µM)
MIC [3, 6]: 128 µg/mL (≈ 219 µM)
MIC ([3]; Escherichia coli, read-out: Amikacin MIC Alone, E. coli ECO022): 16 µg/mL (≈ 27.3 µM)
Amikacin MIC Alone ([3]; P. aeruginosa PA022): 128 µg/mL
MIC [3, 7]: 64 µg/mL (≈ 109 µM)
MIC ([3]; Pseudomonas aeruginosa, read-out: Amikacin MIC Alone, P. aeruginosa PA037): 16 µg/mL (≈ 27.3 µM)
Amikacin MIC Alone ([3]; S. epidermidis SE003): 64 µg/mL
Amikacin MIC Alone ([3]; S. maltophilia SMA018): >128 µg/mL
Amikacin MIC Alone ([3]; S. maltophilia SMA037): 64 µg/mL
MIC ([3]; Staphylococcus aureus, MRSA, read-out: Amikacin MIC Alone, S. aureus SA014 MRSA): 32 µg/mL (≈ 54.6 µM)
MIC ([3]; Staphylococcus aureus, MRSA, read-out: Amikacin MIC Alone, S. aureus SA025 MRSA): 32 µg/mL (≈ 54.6 µM)
MIC ([3]; Staphylococcus epidermidis, read-out: Amikacin MIC Alone, S. epidermidis SE002): 64 µg/mL (≈ 109 µM)
MIC ([3]; Staphylococcus epidermidis, read-out: Amikacin MIC Alone, S. epidermidis SE003): 32 µg/mL (≈ 54.6 µM)
MIC ([3]; Stenotrophomonas maltophilia, read-out: Amikacin MIC Alone, S. maltophilia SMA018): 128 µg/mL (≈ 219 µM)
MIC ([3]; Stenotrophomonas maltophilia, read-out: Amikacin MIC Alone, S. maltophilia SMA021): 128 µg/mL (≈ 219 µM)
MIC ([3]; Stenotrophomonas maltophilia, read-out: Amikacin MIC Alone, S. maltophilia SMA022): > 128 µg/mL
MIC ([3]; Stenotrophomonas maltophilia, read-out: Amikacin MIC Alone, S. maltophilia SMA036): > 128 µg/mL
MIC ([3]; Stenotrophomonas maltophilia, read-out: Amikacin MIC Alone, S. maltophilia SMA037): 128 µg/mL (≈ 219 µM)
MIC ([3]; Stenotrophomonas maltophilia, read-out: Amikacin MIC Alone, S. maltophilia SMA060): > 128 µg/mL
MIC ([3]; Stenotrophomonas maltophilia, read-out: Amikacin MIC Alone, S. maltophilia SMA063): > 128 µg/mL
MIC ([3]; Stenotrophomonas maltophilia, read-out: Amikacin MIC Alone, S. maltophilia SMA064): > 128 µg/mL
MIC [4, 7]: 64 µg/mL (≈ 109 µM)
